Like-named read-outs stand apart in the source and are kept apart here.
Columns and labels:
CYP1A1 [1] = molecular target: T1, CYP1A1 (Homo sapiens, UniProt P04798); assay: Michaelis-Menten kinetics of TKI metabolite production, cDNA expressed CYP1A1 microsomes; details: for Km: read-out: Affinity Constant, Km, Km of the parent TKI for production of the labelled metabolite, 10 pmoles CYP, TKI 0.5-20 µM, 15 min; for Relative Intrinsic Clearance: Vmax/Km for production of the labelled metabolite, as fold difference of the intrinsic clearance of CYP3A4
T1 sequence (P04798 1-512): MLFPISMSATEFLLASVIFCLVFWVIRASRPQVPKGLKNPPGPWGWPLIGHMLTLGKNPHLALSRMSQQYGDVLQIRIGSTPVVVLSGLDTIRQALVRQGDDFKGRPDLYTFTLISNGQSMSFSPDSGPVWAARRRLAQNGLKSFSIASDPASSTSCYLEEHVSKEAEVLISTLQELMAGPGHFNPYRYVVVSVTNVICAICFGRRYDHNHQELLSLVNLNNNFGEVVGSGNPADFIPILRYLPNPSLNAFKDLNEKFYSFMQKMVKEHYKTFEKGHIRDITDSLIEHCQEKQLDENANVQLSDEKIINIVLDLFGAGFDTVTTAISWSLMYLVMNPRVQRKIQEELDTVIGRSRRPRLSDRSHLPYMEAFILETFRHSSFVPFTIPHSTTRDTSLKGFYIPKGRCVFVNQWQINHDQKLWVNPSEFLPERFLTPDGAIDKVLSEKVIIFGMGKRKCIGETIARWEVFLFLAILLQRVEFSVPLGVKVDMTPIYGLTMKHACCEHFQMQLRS

CYP2J2 [2] = molecular target: T2, CYP2J2 (Homo sapiens, UniProt P51589); assay: Michaelis-Menten kinetics of TKI metabolite production, cDNA expressed CYP2J2 microsomes; details: for Km: read-out: Affinity Constant, Km, Km of the parent TKI for production of the labelled metabolite, 10 pmoles CYP, TKI 0.5-20 µM, 15 min
T2 sequence (P51589 1-502): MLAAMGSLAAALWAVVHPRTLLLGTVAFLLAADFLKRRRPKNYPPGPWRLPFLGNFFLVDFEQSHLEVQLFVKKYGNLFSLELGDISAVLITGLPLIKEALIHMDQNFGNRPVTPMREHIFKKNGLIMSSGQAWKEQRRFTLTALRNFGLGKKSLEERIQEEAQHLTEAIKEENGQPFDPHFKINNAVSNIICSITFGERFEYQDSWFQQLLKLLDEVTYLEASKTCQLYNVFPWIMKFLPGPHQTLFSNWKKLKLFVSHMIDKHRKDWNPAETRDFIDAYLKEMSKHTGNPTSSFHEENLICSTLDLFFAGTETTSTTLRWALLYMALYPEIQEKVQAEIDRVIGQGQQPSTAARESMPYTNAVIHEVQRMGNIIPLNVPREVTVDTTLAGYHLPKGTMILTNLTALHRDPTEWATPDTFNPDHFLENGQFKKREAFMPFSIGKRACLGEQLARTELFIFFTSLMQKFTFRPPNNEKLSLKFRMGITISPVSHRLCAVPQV

CYP3A4 [3] = molecular target: T3, CYP3A4 (Homo sapiens, UniProt P08684); assay: Michaelis-Menten kinetics of TKI metabolite production, cDNA expressed CYP3A4 microsomes; details: for Km: read-out: Affinity Constant, Km, CYP3A4, Km of the parent TKI for production of the labelled metabolite, 10 pmoles CYP, TKI 0.5-20 µM, 15 min
CYP1B1 [4] = molecular target: T4, CYP1B1 (Homo sapiens, UniProt Q16678); assay: Michaelis-Menten kinetics of TKI metabolite production, cDNA expressed CYP1B1 microsomes; details: for Relative Intrinsic Clearance: Vmax/Km for production of the labelled metabolite, as fold difference of the intrinsic clearance of CYP3A4; for Km: read-out: Affinity Constant, Km, Km of the parent TKI for production of the labelled metabolite, 10 pmoles CYP, TKI 0.5-20 µM, 15 min
T4 sequence (Q16678 1-543): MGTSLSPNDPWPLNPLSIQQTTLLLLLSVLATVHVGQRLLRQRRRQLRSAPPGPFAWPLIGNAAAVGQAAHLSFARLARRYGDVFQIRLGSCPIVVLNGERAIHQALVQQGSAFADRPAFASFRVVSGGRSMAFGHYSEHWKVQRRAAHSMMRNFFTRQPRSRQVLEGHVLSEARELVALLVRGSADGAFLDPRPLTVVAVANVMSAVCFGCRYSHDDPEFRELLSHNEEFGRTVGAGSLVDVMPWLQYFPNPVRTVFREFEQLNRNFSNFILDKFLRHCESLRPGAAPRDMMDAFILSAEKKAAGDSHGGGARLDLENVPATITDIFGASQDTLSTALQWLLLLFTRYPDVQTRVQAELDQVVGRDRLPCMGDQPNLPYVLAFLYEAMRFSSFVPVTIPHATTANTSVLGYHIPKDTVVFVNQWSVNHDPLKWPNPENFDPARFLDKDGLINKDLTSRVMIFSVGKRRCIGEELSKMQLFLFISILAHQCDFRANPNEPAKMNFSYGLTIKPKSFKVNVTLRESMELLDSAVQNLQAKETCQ

CYP1A1 [5] = molecular target: T1, CYP1A1; assay: TKI disappearance in microsomal incubations with cDNA expressed CYP1A1; format: in vitro ADME; set-up: purchased BD Bioscience (Belgium), BD Gentest; host or cells: insect cells
Description: (§1) The disappearance rate was calculated after 10 min (see Table 1 ) taking into account the percent of TKI removed from the incubation (0.25 nmole of TKI and 20 pmoles of CYP in 100 µL) and are expressed in (nmole of degraded TKI/(nanomole of CYP×min)).
(§2) Protein pellets were discarded.

CYP1B1 [6] = molecular target: T4, CYP1B1; assay: TKI disappearance in microsomal incubations with cDNA expressed CYP1B1; format: in vitro ADME; set-up: purchased BD Bioscience (Belgium), BD Gentest; host or cells: insect cells; details: TKI 2.5 µM at T = 0, first 10 minutes, 20 picomoles of CYP
Description: as §1, §2

CYP1B1 [7] = molecular target: T4, CYP1B1; assay: TKI disappearance in culture media of HepG2 cells infected with adenovirus expressing CYP1B1; details: up to 72 hours, result in words
CYP2J2 [8] = molecular target: T2, CYP2J2; details: 2.5 µM, pH 7.4; for Disappearance rate in microsomal incubations: 10 min; for TKI levels removed from incubations: 30 min
Description: as §1, §2

CYP3A4 [9] = molecular target: T3, CYP3A4; details: 2.5 µM, pH 7.4; for Disappearance rate in microsomal incubations: 10 min; for TKI levels removed from incubations: 30 min
Description: as §1, §2

CYP1A1 [10] = molecular target: T1, CYP1A1; details: HepG2 cells infected with CYP1A1 adenovirus; up to 72 hours; result in words
Text: as §2

CYP2J2 [11] = molecular target: T2, CYP2J2; assay: TKI disappearance in culture media of HepG2 cells infected with adenovirus expressing CYP2J2; details: up to 72 hours, result in words
Text: as §2

CYP1A1 [12] = molecular target: T1, CYP1A1; set-up: purchased BD Bioscience (Belgium), BD Gentest; host or cells: insect cells; method as in earlier work; details: compared with CYP1B1 and 3A4, ref 22 (Kamath et al.); cited from earlier work
CYP1B1 [13] = molecular target: T4, CYP1B1; set-up: purchased BD Bioscience (Belgium), BD Gentest; host or cells: insect cells; method as in earlier work; details: compared with CYP1A1 and 3A4, ref 22 (Kamath et al.); cited from earlier work
CYP3A4 [14] = molecular target: T3, CYP3A4; set-up: purchased BD Bioscience (Belgium), BD Gentest; host or cells: insect cells; method as in earlier work; details: compared with CYP1A1 and 1B1, ref 22 (Kamath et al.); cited from earlier work
CYP1A1 [15] = molecular target: T1, CYP1A1; details: read-out: Affinity Constant, Km, Km of the parent TKI (imatinib) for production of the labelled metabolite, values marked (*), previous published study ref 18; cited from earlier work
CYP2J2 [16] = details: approved drugs identified as CYP2J2 inhibitors; cited from earlier work
[17] = CYP1A1, TKI 2.5 µM at T = 0, first 10 minutes, 20 picomoles of CYP

T3 sequence (P08684 whole entry): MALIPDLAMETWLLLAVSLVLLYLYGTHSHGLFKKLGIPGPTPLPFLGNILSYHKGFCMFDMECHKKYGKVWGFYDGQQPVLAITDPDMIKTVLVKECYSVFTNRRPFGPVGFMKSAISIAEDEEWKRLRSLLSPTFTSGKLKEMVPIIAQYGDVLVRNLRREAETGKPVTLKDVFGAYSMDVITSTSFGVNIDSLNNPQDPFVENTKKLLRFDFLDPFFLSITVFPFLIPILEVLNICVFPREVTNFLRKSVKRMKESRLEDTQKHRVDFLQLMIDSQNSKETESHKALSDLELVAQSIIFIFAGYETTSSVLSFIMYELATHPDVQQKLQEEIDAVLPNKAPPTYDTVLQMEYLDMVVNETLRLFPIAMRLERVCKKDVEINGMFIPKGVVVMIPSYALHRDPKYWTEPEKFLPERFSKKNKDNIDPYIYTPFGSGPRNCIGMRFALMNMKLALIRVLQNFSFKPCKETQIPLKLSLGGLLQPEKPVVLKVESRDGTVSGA

Compound: N-oxide-nilotinib [NO-nilotinib #1]
- Km (CYP1A1 [1]): 3 µM
- Km (CYP2J2 [2]): 0.8 µM
- Km (CYP3A4 [3]): 27.6 µM

Compound: Cc1nc(Nc2ncc(C(=O)Nc3c(C)cccc3Cl)s2)cc(N2CCNCC2)n1 [dehydroxyethyl-dasatinib]
- Relative Intrinsic Clearance (CYP1A1 [1]): 0.5 fold diff.
- Km (CYP1A1 [1]): 4.7 µM
- Relative Intrinsic Clearance (CYP1B1 [4]): 1.1 fold diff.
- Km (CYP1B1 [4]): 2.2 µM
- Relative Intrinsic Clearance (CYP2J2 [2]; Vmax/Km for production of the labelled metabolite, as fold difference of the intrinsic clearance of CYP3A4): 0.5 fold diff.
- Km (CYP2J2 [2]): 3.9 µM
- Relative Intrinsic Clearance (CYP3A4 [3]; CYP3A4 (reference, set to 1.0), Vmax/Km for production of the labelled metabolite): 1.0 fold diff.
- Km (CYP3A4 [3]): 71.4 µM

Compound: CNC(=O)c1cc(Oc2ccc(NC(=O)Nc3ccc(Cl)c(C(F)(F)F)c3)cc2)ccn1 [Sorafenib, sorafenib]
- Disappearance rate in microsomal incubations (CYP1A1 [5]; [17]): 0.4 nmoles of TKI degraded/(min×nmole of CYP)
- Disappearance rate in microsomal incubations (CYP1B1 [6]): 0.0 nmoles of TKI degraded/(min×nmole of CYP)
- TKI removal from HepG2 cell culture media (CYP1B1 [7]): very slowly by CYP1B1

Compound: Cc1nc(Nc2ncc(C(=O)Nc3c(C)cccc3Cl)s2)cc(N2CCN(CCO)CC2)n1 [Dasatinib, dasatinib]
- Disappearance rate in microsomal incubations (CYP2J2 [8]): 1.1 nmoles of TKI degraded/(min×nmole of CYP)
- TKI levels removed from incubations (CYP2J2 [8]): more than 60%
- Disappearance rate in microsomal incubations (CYP3A4 [9]): 1.2 nmoles of TKI degraded/(min×nmole of CYP)
- TKI levels removed from incubations (CYP3A4 [9]): more than 60%
- TKI removal from HepG2 cell culture media (CYP1A1 [10]): CYP2J2>CYP1A1>CYP1B1
- TKI removal from HepG2 cell culture media (CYP2J2 [11]): CYP2J2>CYP1A1>CYP1B1
- Disappearance rate in microsomal incubations (CYP1A1 [5]; [17]): 0.9 nmoles of TKI degraded/(min×nmole of CYP)
- Disappearance rate in microsomal incubations (CYP1B1 [6]): 1.0 nmoles of TKI degraded/(min×nmole of CYP)
- Degradation in similar microsomal incubations (CYP1A1 [12]): comparable rate of disappearance
- Degradation in similar microsomal incubations (CYP1B1 [13]): comparable rate of disappearance
- Degradation in similar microsomal incubations (CYP3A4 [14]): comparable rate of disappearance
- TKI removal from HepG2 cell culture media (CYP1B1 [7]): CYP2J2>CYP1A1>CYP1B1

Compound: Cc1ccc(NC(=O)c2ccc(CN3CCNCC3)cc2)cc1Nc1nccc(-c2cccnc2)n1 [N-demethyl-imatinib]
- Km (CYP1A1 [15]): 7.6 µM

Compound: CCNCCNC(=O)c1c(C)[nH]c(/C=C2\C(=O)Nc3ccc(F)cc32)c1C [E-deethyl-sunitinib #1, E-deethyl-sunitinib]
- Relative Intrinsic Clearance (CYP1A1 [1]): 0.1 fold diff.
- Km (CYP1A1 [1]): 6.9 µM
- Relative Intrinsic Clearance (CYP1B1 [4]): 0.1 fold diff.
- Km (CYP1B1 [4]): 2.7 µM

Compound: Cc1cn(-c2cc(NC(=O)c3ccc(C)c(Nc4nccc(-c5cccnc5)n4)c3)cc(C(F)(F)F)c2)cn1 [Nilotinib, nilotinib]
- Disappearance rate in microsomal incubations (CYP2J2 [8]): 0.7 nmoles of TKI degraded/(min×nmole of CYP)
- TKI levels removed from incubations (CYP2J2 [8]): more than 60%
- Disappearance rate in microsomal incubations (CYP3A4 [9]): 1.2 nmoles of TKI degraded/(min×nmole of CYP)
- TKI levels removed from incubations (CYP3A4 [9]): more than 60%
- TKI removal from HepG2 cell culture media (CYP2J2 [11]): mainly removed by CYP2J2
- Disappearance rate in microsomal incubations (CYP1A1 [5]; [17]): 0.2 nmoles of TKI degraded/(min×nmole of CYP)
- Disappearance rate in microsomal incubations (CYP1B1 [6]): 0.3 nmoles of TKI degraded/(min×nmole of CYP)
- TKI removal from HepG2 cell culture media (CYP1B1 [7]): very slowly by CYP1B1

Compound: C#C[C@]1(O)CC[C@H]2[C@@H]3CCC4=Cc5oncc5C[C@]4(C)[C@H]3CC[C@@]21C [danazol]
- CYP2J2 inhibition (CYP2J2 [16]): CYP2J2 inhibitors

Compound: CCN(CC)CCNC(=O)c1c(C)[nH]c(/C=C2\C(=O)Nc3ccc(F)cc32)c1C [Sunitinib, sunitinib]
- TKI removal from HepG2 cell culture media (CYP1A1 [10]): equal rate for CYP1A1 and 2J2
- Disappearance rate in microsomal incubations (CYP1A1 [5]): 0.6 nmoles of TKI degraded/(min×nmole of CYP)
- Disappearance rate in microsomal incubations (CYP1B1 [6]): 0.1 nmoles of TKI degraded/(min×nmole of CYP)

Compound: Fc1ccc(C(c2ccc(F)cc2)N2CCN(C/C=C/c3ccccc3)CC2)cc1 [flunarizine]
- CYP2J2 inhibition (CYP2J2 [16]): CYP2J2 inhibitors

Compound: CCNCCNC(=O)c1c(C)[nH]c(/C=C2\C(=O)Nc3ccc(F)cc32)c1C [Z-deethyl-sunitinib #2, Z-deethyl-sunitinib]
- Relative Intrinsic Clearance (CYP1A1 [1]): 0.2 fold diff.
- Km (CYP1A1 [1]): 6.7 µM
- Relative Intrinsic Clearance (CYP1B1 [4]): 0.1 fold diff.

Compound: CCCc1nc2c(C)cc(-c3nc4ccccc4n3C)cc2n1Cc1ccc(-c2ccccc2C(=O)O)cc1 [telmisartan]
- CYP2J2 inhibition (CYP2J2 [16]): CYP2J2 inhibitors

Reference: article PMC4018390, “Important Role of CYP2J2 in Protein Kinase Inhibitor Degradation: A Possible Role in Intratumor Drug Disposition and Resistance” (PLoS ONE, 2014)
